Assay results: patent publication US6090605A, “Purified porcine kidney L-fucose kinase” (The Board of Trustees of the University of Arkansas, priority 1998, dated 2000)
Entries after “also recorded” stand apart in the source; their conditions may differ. One block for each compound: values may come before it.

Legend:
[1] = biological target: T1, pig kidney fucokinase (Sus scrofa, UniProt I3LTC2); experiment: Specificity of fucokinase for phosphate donor (nucleotides); type: biochemical; conditions: for Specific Activity: nucleotide added at 1 mM as phosphate donor; for activity as phosphate donor (in words): nucleotide added at 1 mM
T1 construct: L-Fucokinase was purified to apparent homogeneity from the cytosolic fraction of pig kidney; from tissue; host or cells: pig kidney, cytosolic fraction
T1 sequence (I3LTC2 1-1083): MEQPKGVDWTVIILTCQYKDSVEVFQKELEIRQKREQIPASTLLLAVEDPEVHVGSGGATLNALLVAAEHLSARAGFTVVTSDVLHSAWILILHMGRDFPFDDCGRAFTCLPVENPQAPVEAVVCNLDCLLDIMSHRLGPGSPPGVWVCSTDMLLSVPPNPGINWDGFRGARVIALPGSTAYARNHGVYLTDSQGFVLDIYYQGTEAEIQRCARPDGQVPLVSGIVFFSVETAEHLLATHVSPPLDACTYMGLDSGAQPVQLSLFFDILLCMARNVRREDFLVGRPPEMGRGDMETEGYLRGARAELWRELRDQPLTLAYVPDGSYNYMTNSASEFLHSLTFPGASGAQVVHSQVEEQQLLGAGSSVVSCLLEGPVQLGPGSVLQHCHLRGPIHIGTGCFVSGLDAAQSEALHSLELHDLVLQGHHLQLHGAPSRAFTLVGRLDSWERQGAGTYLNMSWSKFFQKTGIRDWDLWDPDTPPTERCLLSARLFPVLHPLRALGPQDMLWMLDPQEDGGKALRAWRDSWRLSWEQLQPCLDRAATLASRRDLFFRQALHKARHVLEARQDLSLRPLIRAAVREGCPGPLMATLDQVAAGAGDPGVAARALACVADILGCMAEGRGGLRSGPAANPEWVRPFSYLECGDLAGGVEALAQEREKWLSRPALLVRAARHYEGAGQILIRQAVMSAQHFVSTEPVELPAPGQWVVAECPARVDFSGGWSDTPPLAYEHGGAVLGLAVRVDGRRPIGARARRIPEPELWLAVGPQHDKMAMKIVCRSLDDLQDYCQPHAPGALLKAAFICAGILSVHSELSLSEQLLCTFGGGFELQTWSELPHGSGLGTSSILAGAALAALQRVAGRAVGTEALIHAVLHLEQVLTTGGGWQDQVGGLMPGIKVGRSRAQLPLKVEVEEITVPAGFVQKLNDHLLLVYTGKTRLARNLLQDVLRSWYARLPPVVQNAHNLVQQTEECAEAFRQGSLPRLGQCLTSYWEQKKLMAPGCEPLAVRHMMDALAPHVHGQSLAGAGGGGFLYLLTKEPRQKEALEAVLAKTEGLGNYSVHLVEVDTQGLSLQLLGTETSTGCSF
Procedure: (§1) Fucokinase activity was assayed by measuring the production of L-fucose-1-Pfrom [^3 H]L-fucose and ATP. The incubation mixtures contained the following components (final concentrations) in a total volume of 150 μl: L-fucose, 0.1 mM; ATP, 5 mM; MgSO4, 5 mM; Tris-HCl buffer, pH 8.0, 65 mM; and various amounts of enzyme at the different stages of purification. Incubations were at 37° C. for 10 minutes, and reactions were terminated by heating the reaction mixtures in a boiling water bath for 1 minute. The incubation mixtures were then applied to a column of DE-52 contained in a Pasteur pipette, and the column was washed with at least 5 column volumes of 10 mM (NH4)HCO3 to remove the unbound material. The [^3 H]fucose-1-P was then eluted with 500 mM (NH4)HCO3. Aliquots of the eluates were assayed for their radioactive content by subjecting a portion to scintillation counting.
The specificity of the nucleoside triphosphate was also examined by testing the ability of a variety of nucleotides to serve as phosphate donors in the phosphorylation of [^3 H]L-fucose. […] In addition, no activity is observed with any nucleoside diphosphates or monophosphates.

[2] = biological target: T2, pig kidney fucokinase (110 kDa band) (Sus scrofa, UniProt I3LTC2); experiment: Photoaffinity labeling of the fucokinase with 8-azido-ATP[32P]; type: binding; conditions: for labeling of the 110 kDa protein by photoprobe (in words): incubation with probe, exposure to UV light
T2 construct: L-Fucokinase was purified to apparent homogeneity from the cytosolic fraction of pig kidney; from tissue; host or cells: pig kidney, cytosolic fraction
T2 sequence (I3LTC2 1-1083): T1 sequence (I3LTC2 1-1083)
Procedure: The purified enzyme was incubated for 20 seconds with azido-ATP[^32 P], and the mixture was exposed to UV for 90 seconds. The reaction was stopped by adding loading buffer and the mixture subjected to SDS-PAGE. Radioactive bands were detected by exposure to film. Lanes are as follows: Lane 1, Probe+enzyme, but no UV; Lane 2, Probe+enzyme+UV; Lanes 3 through 6. Probe+enzyme+0.3, 0.6, 0.9, and 1.2 mM ATP+exposure to UV light; lanes 7 and 8, 0.6 and 1.2 mM GTP+probe+exposure to UV light: lanes 9 and 10, 0.6 and 1.2 mM ITP+probe+exposure to UV light. In lanes 11 and 12, the enzyme was incubated with N3 -GTP[^32 P ] and then exposed to UV light (lane 12) or not exposed to UV light (lane 11). Lane 13 is a control of enzyme+N3 -ATP[^32 P]+exposure to UV light.
Enzyme, at various stages of purity, was mixed with 8-azido-ATP[^32 P] in buffer, and allowed to incubate for 20 sec. in an ice bath. 8-Azido-ATP[^32 P] was prepared as previously described (16). After incubation, the reaction mixture was exposed to short wave UV light for about 90 sec. to activate the azido group, and the protein was subjected to SDS gel electrophoresis to separate the proteins. The gels were dried and exposed to film to locate the radioactive bands and were also stained with Coomassie blue to locate the various proteins. The specificity of the labeling was determined by examining the effect of various concentrations of unlabeled ATP or other nucleotides on the labeling of the protein by N3 -ATP[^32 P]. Various controls were also run, such as one in which exposure to UV was omitted.
Lanes 11-13 of FIG. 3 show the results of another experiment designed to determine whether 8-N3 -GTP[^32 P] could label the fucokinase. […] These experiments indicate that the fucokinase is quite specific for ATP.

[3] = biological target: T1, pig kidney fucokinase; experiment: Effect of metal ions on fucokinase activity; type: biochemical; conditions: for effect on activity when added to incubations containing Mg++ (in words): metal ion at 1 mM
Procedure: Increasing concentrations of the metal ions shown were added to incubations of the purified enzyme with ^3 H-fucose and ATP, and the formation of fucose-1-P was measured as described below. Metal ions tested were as follows: Mg^++, filled circles; Fe^++, filled diamonds; Co^++, filled triangles; Mn^++, filled squares.
as §1
Co^++ and Mn^++ were also stimulatory with maximum activity occurring at about 3 to 5 mM, but the maximum activity was only about 25% to 33% of that observed with Mg^++.

[4] = biological target: T1, pig kidney fucokinase; experiment: Inhibition of [3H]L-fucose phosphorylation by unlabeled monosaccharides; type: biochemical; conditions: for Relative Activity (%): unlabeled monosaccharide 500 μM, radiolabeled L-fucose substrate 100 μM; for inhibition of phosphorylation of [3H]L-fucose (in words): unlabeled sugar 500 μM
Procedure: as §1
Although it was possible to get a reasonable assessment of the sugar specificity of the kinase from the above experiment, it was not possible to test sugars such as D-fucose, since these sugars are not available in radioactive form. Thus, these unlabeled sugars were tested for their ability to inhibit the phosphorylation of [^3 H]L-fucose. The rationale for this experiment is that a sugar that inhibits the phosphorylation of L-fucose would probably compete with L-fucose for the phosphorylation (i.e., active) site.

[5] = biological target: T1, pig kidney fucokinase; experiment: Sugar specificity of purified fucokinase (radiolabeled sugars as phosphate acceptors); type: biochemical; conditions: for Specific Activity: radiolabeled sugar 100 μM as phosphate acceptor
Procedure: as §1
The specificity of the kinase for various sugar substrates was examined in two different ways. In the first set of experiments, various radiolabeled sugars were tested as phosphate acceptors for the purified enzyme using the ion-exchange chromatography method for assay of activity. […] D-Arabinose, which has the same configuration at carbons 1 through 4 as L-fucose, was also a reasonable substrate for phosphorylation, and was about 10% as effective as L-fucose. On the other hand, all of the other sugars were ineffective as phosphate acceptors.

[6] = test system: pig liver L-fucokinase preparation; conditions: cited from earlier work

Compound: Nc1ncnc2c1ncn2[C@@H]1O[C@H](COP(=O)(O)OP(=O)(O)OP(=O)(O)O)[C@@H](O)[C@H]1O [ATP]
Specific Activity [1]: 4.05 nmoles/mg protein/10 min
inhibition of labeling of the 110 kDa band by N3-ATP[32P] (in words) ([2]; unlabeled ATP 0.3-1.2 mM, GTP, ITP 0.6 and 1.2 mM): inhibited in a dose-dependent manner

stimulation of enzyme activity by metal ion (in words) [3]: inactive
effect on activity when added to incubations containing Mg++ (in words) [3]: completely inhibited activity
Compound: [Zn+2] [Zn^++]

stimulation of enzyme activity by metal ion (in words) [3]: gave the best stimulation
Compound: [Mg+2] [Mg^++]

labeling of the 110 kDa protein by photoprobe (in words) [2]: did not give rise to labeled protein
Compound: 8-N3 -GTP[^32 P]

activity as phosphate donor (in words) [1]: Inactive
Compound: O=c1ccn([C@@H]2O[C@H](COP(=O)(O)OP(=O)(O)O)[C@@H](O)[C@H]2O)c(=O)[nH]1 [UDP]

stimulation of enzyme activity by metal ion (in words) [3]: inactive
effect on activity when added to incubations containing Mg++ (in words) [3]: completely inhibited activity
Compound: [Cu+2] [Cu^++]

Relative Activity (%) [4]: 96%
Specific Activity [5]: 0 nmole/mg protein
Compound: O=C[C@H](O)[C@H](O)[C@H](O)CO [D-ribose]
phosphorylation of sugar by the about 70-fold purified preparation (in words) [6]: considerable activity for phosphorylating

activity as phosphate donor (in words) [1]: Inactive
Compound: Nc1ccn([C@@H]2O[C@H](COP(=O)(O)OP(=O)(O)O)[C@@H](O)[C@H]2O)c(=O)n1 [CDP]

Relative Activity (%) [4]: 102%
inhibition of phosphorylation of [3H]L-fucose (in words) [4]: ineffective as inhibitors
Compound: C[C@@H](O)[C@H](O)[C@H](O)[C@@H](O)C=O [D-fucose]

Relative Activity (%) [4]: 92%
inhibition of phosphorylation of [3H]L-fucose (in words) [4]: ineffective as inhibitors
Compound: O=CC[C@@H](O)[C@H](O)[C@H](O)CO [2-deoxy-D-glucose]

activity as phosphate donor (in words) [1]: Inactive
Compound: Nc1ncnc2c1ncn2[C@@H]1O[C@H](COP(=O)(O)OP(=O)(O)O)[C@@H](O)[C@H]1O [ADP]

stimulation of enzyme activity by metal ion (in words) [3]: inactive
Compound: [Fe+3] [Fe^+++]

Relative Activity (%) [4]: 102%
Compound: C[C@@H](O)[C@@H](O)[C@H](O)[C@H](O)C=O [D-rhamnose]

activity as phosphate donor (in words) [1]: Inactive
Compound: Nc1ccn([C@@H]2O[C@H](COP(=O)(O)O)[C@@H](O)[C@H]2O)c(=O)n1 [CMP]

Relative Activity (%) [4]: 23%
inhibition of phosphorylation of [3H]L-fucose (in words) [4]: reasonable inhibitor
Specific Activity [5]: 11.8 nmole/mg protein
Compound: C[C@H](O)[C@@H](O)[C@@H](O)[C@H](O)C=O [L-fucose]
activity as phosphate acceptor (in words) ([5]; purified enzyme): by far the best substrate; also recorded: active as phosphate acceptors

activity as phosphate donor (in words) [1]: Inactive
Compound: Nc1nc2c(ncn2[C@@H]2O[C@H](COP(=O)(O)OP(=O)(O)O)[C@@H](O)[C@H]2O)c(=O)[nH]1 [GDP]

activity as phosphate donor (in words) [1]: Inactive
Compound: Nc1ncnc2c1ncn2[C@@H]1O[C@H](COP(=O)(O)O)[C@@H](O)[C@H]1O [AMP]

activity as phosphate donor (in words) [1]: Inactive
Compound: Nc1nc2c(ncn2[C@@H]2O[C@H](COP(=O)(O)O)[C@@H](O)[C@H]2O)c(=O)[nH]1 [GMP]

stimulation of enzyme activity by metal ion (in words) [3]: inactive
Compound: [Ca+2] [Ca^++]

Compound: [Ni+2] [Ni^++]
stimulation of enzyme activity by metal ion (in words) [3]: inactive

inhibition of phosphorylation of [3H]L-fucose (in words) [4]: ineffective as inhibitors
Compound: C[C@H](O)[C@H](O)[C@@H](O)[C@@H](O)C=O [L-rhamnose]
phosphorylation of sugar by the about 70-fold purified preparation (in words) [6]: considerable activity for phosphorylating

Relative Activity (%) [4]: 80%
activity as phosphate acceptor (in words) ([5]; purified enzyme): active as phosphate acceptors
rate of phosphorylation relative to L-fucose ([5]; purified enzyme, sugar as phosphate acceptor): about 10%
Specific Activity [5]: 1.1 nmole/mg protein
Compound: O=C[C@@H](O)[C@H](O)[C@H](O)CO [D-arabinose]
inhibition of phosphorylation of [3H]L-fucose (in words) [4]: inhibited although considerably less so than the L-fucose

stimulation of enzyme activity by metal ion (in words) [3]: inactive
Compound: [Mo+2] [Mo^++]

Compound: [N-]=[N+]=Nc1nc2c(N)ncnc2n1[C@@H]1O[C@H](COP(=O)(O)OP(=O)(O)OP(=O)(O)O)[C@@H](O)[C@H]1O [N3 -ATP[^32 P], 8-azido-ATP[^32 P]]
labeling of the 110 kDa protein by photoprobe (in words) [2]: did result in labeling of the 110 kDa protein

Relative Activity (%) [4]: 103%
Specific Activity [5]: 0 nmole/mg protein
Compound: O=C[C@H](O)[C@@H](O)[C@H](O)CO [D-xylose]

Specific Activity [1]: 0.04 nmoles/mg protein/10 min
Compound: O=c1ccn([C@@H]2O[C@H](COP(=O)(O)OP(=O)(O)OP(=O)(O)O)[C@@H](O)[C@H]2O)c(=O)[nH]1 [UTP]
use as phosphate donor (in words) [6]: could also use

metal ion concentration at optimum (maximum) activity [3]: about 10 mM
stimulation of enzyme activity by metal ion (in words) [3]: nearly the same degree as Mg^++
Compound: [Fe+2] [Fe^++]

Specific Activity [1]: 0.05 nmoles/mg protein/10 min
Compound: Nc1ccn([C@@H]2O[C@H](COP(=O)(O)OP(=O)(O)OP(=O)(O)O)[C@@H](O)[C@H]2O)c(=O)n1 [CTP]
use as phosphate donor (in words) [6]: could also use

Compound: [Hg+2] [Hg^++]
stimulation of enzyme activity by metal ion (in words) [3]: inactive
effect on activity when added to incubations containing Mg++ (in words) [3]: completely inhibited activity

activity as phosphate donor (in words) [1]: Inactive
Compound: O=c1ccn([C@@H]2O[C@H](COP(=O)(O)O)[C@@H](O)[C@H]2O)c(=O)[nH]1 [UMP]
